Results on 13 molecules are retold here after patent US11478474B2, “2-(3′-(hydroxymethyl)-1-methyl-5-((5-(2-methyl-4-(oxetan-3-yl)piperazin-1-yl)pyridin-2-yl)amino)-6-oxo-1,6-dihydro-[3,4′-bipyridin]-2′-yl)-7,7-dimethyl-7,8-dihydro-2H-cyclopenta[4,5]pyrrolo[1,2-a]pyrazin-1(6H)-one as a BTK inhibitor” (HUTCHISON MEDIPHARMA LIMITED, priority 2020, dated 2022).

A short description of data set [1]: Stability test in liver microsomes (mouse). Type of data set: in vitro ADME. The following applies: mouse liver microsomes 0.5 mg/mL, compound 1 μM, 37° C. From the text:
(§1) Example 5 Stability Test in Liver Microsomes
(§2) Both male CD-1 mouse pooled liver microsomes and male SD rat pooled liver microsomes were purchased from BioreclamationIVT Corporation, USA.
(§3) Phenacetin, glucose-6-phosphate dehydrogenase (G-6-PDH) and nicotinamide adenine dinucleotide phosphate (NADP) were all purchased from Sigma-Aldrich Corporation, USA. Glucose-6-phosphate (G-6-P) was purchased from Shanghai Eybridge Chemical Technology Co., Ltd.
(§4) Ten mM test compound stock solution: a certain amount of test compound was weighed, and dissolved with an appropriate volume of DMSO to prepare a stock solution with a concentration of 10 mM for use.
(§5) Reaction stopping solution: an appropriate amount of internal standard compound phenacetin was dissolved in acetonitrile to prepare a reaction stopping solution with a concentration of 1000 ng/mL for use at room temperature.
(§6) The test compound stock solution was diluted with an organic solvent (usually a mixture of acetonitrile, methanol and water with various ratios, depending on the solubility of the compound, if necessary, 1 N hydrochloric acid or 1 N sodium hydroxide would be added to facilitate solubilization) to the 0.1 mM (the final concentration of the compound in the reaction system was 1 μM) and the concentration percentage of the organic solvents in the incubation system no more than 1% (wherein the percentage of DMSO was required to be no more than 0.1%). An appropriate amount of 100 mM NADP, 500 mM G-6-P and 100 Unit/mL G-6-PDH were mixed and diluted with ultrapure water (the final system contains 1 mM NADP, 5 mM G-6-P and 1 Unit/mL G-6-PDH), pre-incubated in a 37° C. water bath for 10 minutes and then placed on ice for use as a NADPH regeneration solution. 20 mg/mL liver microsomes solution and 200 mM phosphate buffer was mixed, and diluted with ultrapure water to give a liver microsomes solution containing 2.5 mg/mL liver microsomes (the final concentration of the reaction system is 0.5 mg/mL) and 50 mM phosphate buffer. The diluted liver microsomes solution was mixed with 0.1 mM compound solution, a mixture of 100 mM EDTA, 300 mM MgCl2 solution, 200 mM phosphate buffer (the final system was 3 mM MgCl2, 1 mM EDTA and 50 mM phosphate buffer) and water in an appropriate volume was added. Finally, the NADPH regeneration solution was added, then the reaction solution was placed in a 37° C. water bath to start the reaction (the reaction time was 30 minutes), and the reaction was stopped by adding the ice-cold acetonitrile reaction stopping solution containing the internal standard. The 0-minute sample was not incubated in a 37° C. water bath, and its difference from the 30-minute sample further lies in that the ice-cold acetonitrile reaction stopping solution containing the internal standard was added first, and then the NADPH regeneration solution was added. The sample added with the reaction stopping internal standard solution was vortexed and mixed well, and then centrifuged at 4400 rpm for 10 minutes. The supernatant was taken and diluted ten times with 50% methanol for LC-MS/MS analysis.
(§7) LC-MS/MS was used to determine the concentration of the compound in the sample. The percentage of the remaining compound after 30 minutes of incubation comparing with that in the 0-minute sample was calculated using the peak area ratio of the compound to the internal standard as an indicator, to evaluate the metabolic stability of the compound.
(§8) Instrument: API4500, API4000 or LTQ Mass Spectrometer; the liquid phase is UHPLC system (Shimadzu LC-30 AD, model Nexra X2) including liquid delivery unit, column thermostat, detector and autosampler; or Agilent 1200 Binary Pump series HPLC and CTC Autosampler.
(§9) Chromatographic column: Waters XSELECT Hss T3 C18 (2.5 μm, 2.1×50 mm) or […] (5 μm, 2.0×50 mm)
(§10) A: water with 0.1% FA (formic acid) (with or without 0.1% ACN (acetonitrile))
(§11) B: acetonitrile with 0.1% FA (formic acid).
For orientation: Microsomes from liver hold many membrane-bound enzymes, among them those of drug oxidation.

Data set [2] is described as follows: Stability test in liver microsomes (rat). Type of data set: in vitro ADME. As to conditions: for stability in rat & mouse liver microsomes compared with the reference GDC-0853: 30 minutes; for RLM (percentage of the remaining compound after 30 minutes of incubation): rat liver microsomes 0.5 mg/mL, compound 1 μM, 37° C.
From the text: as §1, §2, §3, §4, §5, §6, §7, §8, §9, §10, §11

In data set [3] the test system is B cell activation in mouse whole blood induced by anti-IgD antibodies. Description: In vivo efficacy of the inhibitory effect on BTK target (anti-IgD antibody-induced B cell activation in mice whole blood after in vivo administration). On the procedure:
Objects: B cells in mice whole blood were induced and activated by the anti-IgD antibody, and the inhibitory effect of the compound of the present invention on B cell activation in vivo was studied, so as to determine the inhibitory effect of the compound of the present invention on the BTK target in vivo.
Methods: C57BL/6 mice (female, 18-20 g, purchased from Shanghai Lingchang Biotechnology Co., Ltd.) were grouped according to Table 2.
The animals of each group were administered, then were placed in CO2 for anesthesia at designated time points, blood samples were taken from […] via retro-orbital bleeding, and heparin was used for anticoagulation; 90 μL of whole blood was taken from mice of each group, and added to a 96 well culture plate, and anti-mouse IgD antibody (BIO-RAD, Cat #MCA4693) was added to each well to a final concentration of 0.01 μg/μL (respectively for the each drug-treated group and anti-IgD antibody-inducted vehicle group); in addition, 90 μL of whole blood of mice in the vehicle group was taken and added to the 96-well culture plate, and PBS (phosphate buffer, GIBCO, Cat #C20012500BT) was added to each well to a final concentration of 0.01 μg/μL (namely, the vehicle control group); Each group was mixed well and incubated in a 37° C./5% CO2 incubator for 4 hours. In addition, the blood of mice in the drug-treated group was centrifuged to separate plasma for blood concentration analysis.
Calculation for B Cell Activation Ratio: B cell activation ratio=percentage of CD69+CD19+double positive B cells/percentage of CD19+single positive B cells
Calculation for Inhibition Ratio: Inhibition ratio=(percentage of B cell activation ratio in anti-IgD antibody-induced vehicle group-percentage of B cell activation ratio in drug-treated group)/(percentage of B cell activation ratio in anti-IgD antibody-induced vehicle group-percentage of B cell activation ratio in vehicle control group)×100%
All data are represented by mean±standard error. For the comparison between each drug-treated group and the anti-IgD antibody-induced vehicle group, p value was calculated by Graphpad Prism using one-way ANOVA analysis of variance and Dunnett's test, and for the comparison between each drug-treated group, p value was calculated by using unpaired t test.

With `C[C@H]1CN(C2COC2)CCN1c1ccc(Nc2cc(-c3ccnc(-n4ccn5c6c(cc5c4=O)CC(F)(F)CC6)c3CO)cn(C)c2=O)nc1` [Compound 58], the “MLM (percentage of the remaining compound after 30 minutes of incubation)” value in data set [1] worked out at 97.1%. Further, in data set [2], the “stability in rat & mouse liver microsomes compared with the reference GDC-0853” value (“stability … compared with the reference GDC-0853” for short) is recorded as “better than that of the reference GDC-0853” and the “RLM (percentage of the remaining compound after 30 minutes of incubation)” value is roughly 100%.
`C[C@H]1CN(C2COC2)CCN1c1ccc(Nc2cc(-c3ccnc(-n4ccn5c6c(cc5c4=O)CCC6)c3CO)cn(C)c2=O)nc1` [Compound 64]: the “MLM (percentage of the remaining compound after 30 minutes of incubation)” value in data set [1] was 95.6%. Moreover, in data set [2], the “stability … compared with the reference GDC-0853” value is on record as “better than that of the reference GDC-0853” and the “RLM (percentage of the remaining compound after 30 minutes of incubation)” value was 92.1%.
For `CC1CCc2cc3c(=O)n(-c4nccc(-c5cc(Nc6ccc(N7CCN(C8COC8)C[C@@H]7C)cn6)c(=O)n(C)c5)c4CO)ccn3c2C1` (mixture of isomers) [Compound 78], the “MLM (percentage of the remaining compound after 30 minutes of incubation)” value in data set [1] is on record as 83.4%. Further, in data set [2], the “stability … compared with the reference GDC-0853” value was “better than that of the reference GDC-0853” and the “RLM (percentage of the remaining compound after 30 minutes of incubation)” value was found to be 91.8%.
`C[C@H]1CN(C2COC2)CCN1c1ccc(Nc2cc(-c3ccnc(-n4cnn5c6c(cc5c4=O)CC(C)(C)C6)c3CO)cn(C)c2=O)nc1` [Compound 63]: in data set [1], the “MLM (percentage of the remaining compound after 30 minutes of incubation)” value is given as 85.8%. Also, in data set [2], the “stability … compared with the reference GDC-0853” value is given as “better than that of the reference GDC-0853” and the “RLM (percentage of the remaining compound after 30 minutes of incubation)” value was found to be 89.6%.
On to `C[C@H]1CN(C2COC2)CCN1c1ccc(Nc2cc(-c3ccnc(-n4ncn5c6c(cc5c4=O)CC(C)(C)C6)c3CO)cn(C)c2=O)nc1` [Compound 79], for which, in data set [1], the “MLM (percentage of the remaining compound after 30 minutes of incubation)” value was roughly 100%. Moreover, in data set [2], the “stability … compared with the reference GDC-0853” value is “better than that of the reference GDC-0853” and the “RLM (percentage of the remaining compound after 30 minutes of incubation)” value is roughly 100%.
For `C[C@H]1CN(C2COC2)CCN1c1ccc(Nc2cc(-c3ccnc(-n4ccn5c(cc6cc(F)ccc65)c4=O)c3CO)cn(C)c2=O)nc1` [Compound 75], the “MLM (percentage of the remaining compound after 30 minutes of incubation)” value in data set [1] is listed as 83.0%. In data set [2], the “stability … compared with the reference GDC-0853” value is reported as “better than that of the reference GDC-0853” and the “RLM (percentage of the remaining compound after 30 minutes of incubation)” value is listed as 84.0%.
Consider `C[C@@H]1CN(c2ccc(Nc3cc(-c4ccnc(-n5ccn6c7c(cc6c5=O)CCC7)c4CO)cn(C)c3=O)nc2)[C@@H](C)CN1C1COC1` [Compound 2, 2-(5-((5-((2S,5R)-2,5-dimethyl-4-(oxetan-3-yl)piperazin-1-yl)pyridin-2-yl)amino)-3′-(hydroxymethyl)-1-methyl-6-oxo-1,6-dihydro-[3,4′-bispyridin]-2′-yl)-7,8-dihydro-2H-cyclopenta[4,5]pyrrolo[1,2-a]pyrazin-1(6H)-one], for which the “MLM (percentage of the remaining compound after 30 minutes of incubation)” value in data set [1] was found to be 90.5%. In addition, in data set [2], the “stability … compared with the reference GDC-0853” value was “better than that of the reference GDC-0853” and the “RLM (percentage of the remaining compound after 30 minutes of incubation)” value was found to be 98.9%.
On to `C[C@H]1CN(C2COC2)CCN1c1ccc(Nc2cc(-c3ccnc(-n4ccn5c6c(cc5c4=O)CCC(F)(F)C6)c3CO)cn(C)c2=O)nc1` [Compound 56], for which, in data set [1], the “MLM (percentage of the remaining compound after 30 minutes of incubation)” value came to 89.5%. Besides, in data set [2], the “stability … compared with the reference GDC-0853” value is on record as “better than that of the reference GDC-0853” and the “RLM (percentage of the remaining compound after 30 minutes of incubation)” value worked out at 93.7%.
Turning to `C[C@H]1CN(C2COC2)CCN1c1ccc(Nc2cc(-c3ccnc(-n4ccn5c(cc6ccccc65)c4=O)c3CO)cn(C)c2=O)nc1` [Compound 74], the “MLM (percentage of the remaining compound after 30 minutes of incubation)” value in data set [1] amounted to 97.5%. In addition, in data set [2], the “stability … compared with the reference GDC-0853” value is “better than that of the reference GDC-0853” and the “RLM (percentage of the remaining compound after 30 minutes of incubation)” value was 87.7%.
On to `C[C@H]1CN(C2COC2)CCN1c1ccc(Nc2cc(-c3ccnc(-n4ccn5c6c(cc5c4=O)CC(C)(C)C6)c3CO)nn(C)c2=O)nc1` [Compound 22], for which the “MLM (percentage of the remaining compound after 30 minutes of incubation)” value in data set [1] was determined as 83.4%. Also, in data set [2], the “stability … compared with the reference GDC-0853” value is “better than that of the reference GDC-0853” and the “RLM (percentage of the remaining compound after 30 minutes of incubation)” value was determined as 95.6%.
Consider `C[C@H]1CN(C2COC2)CCN1c1ccc(Nc2cc(-c3ccnc(N4CCn5c(cc6c5CC(C)(C)C6)C4=O)c3CO)cn(C)c2=O)nc1` [GDC-0853, fenebrutinib, reference compound], for which, in data set [1], the “MLM (percentage of the remaining compound after 30 minutes of incubation)” value was determined as 76.3%. Further, in data set [2], the “RLM (percentage of the remaining compound after 30 minutes of incubation)” value was 81.0%. In data set [3] (20 mg/kg single oral gavage, 16 h), the “Inhibition ratio (%)” value worked out at 9%. Moreover, in data set [3] (20 mg/kg single oral gavage, 16 h, mean ± standard error), the “B cell activation ratio (the proportion of activated B cells to total B cells)” value is 29.3 ± 6.7. Besides, in data set [3] (20 mg/kg, 16 hours after administration, mice whole blood, anti-IgD antibody), the “inhibition ratio on B cell activation” value is 9%.
On to `C[C@H]1CN(C2COC2)CCN1c1cnc(Nc2cc(-c3ccnc(-n4ccn5c6c(cc5c4=O)CC(C)(C)C6)c3CO)cn(C)c2=O)nc1` [Compound 44], for which the “MLM (percentage of the remaining compound after 30 minutes of incubation)” value in data set [1] is on record as 93.1%. Also, in data set [2], the “stability … compared with the reference GDC-0853” value is given as “better than that of the reference GDC-0853” and the “RLM (percentage of the remaining compound after 30 minutes of incubation)” value is recorded as 97.1%.
Regarding `Cn1cc(-c2ccnc(-n3ccn4c5c(cc4c3=O)CC(C)(C)C5)c2CO)cc(Nc2ccc(N3CCN(C4COC4)CC3)cn2)c1=O` [Compound 9], the “MLM (percentage of the remaining compound after 30 minutes of incubation)” value in data set [1] was found to be 95.7%. Further, in data set [2], the “stability … compared with the reference GDC-0853” value was “better than that of the reference GDC-0853” and the “RLM (percentage of the remaining compound after 30 minutes of incubation)” value is given as 89.5%.
